Results: patent publication US8343549B2, “Therapeutic uses of Dunaliella powder” (Nikken Sohonsha Corporation, priority 2003, dated 2013)

How the values were obtained:
male LDL R-\-mice = assay: Western diet-induced diabetes in LDL R-/- mice; assay type: in vivo; conditions: LDL R-/- mice on Western diet, 4 weeks treatment
Description: To test the effect of Dunaliella on Diabetes, male LDL R-\-mice (n=30) were fed a Western diet (42% calories from fat) in order to induce Diabetes. After 4 weeks of Western diet feeding, the mice were divided into 6 groups (n=5 in each group) and were fed Western diet fortified by rosiglitazone (0.02% of the diet, weight/weight), crude Dunaliella powder (8% of the diet, weight/weight) or 9-cis retinoic acid (24 nmol/mouse×day). The treatments lasted 4 weeks.
The 8% Dunaliella powder provided ˜1.5 nmol 9-cis retinoic acid/mouse×day. This calculated amount is based on conversion of β-carotene to vitamin A (27 molecules provide 1 molecule of vitamin A and on the ratio of retinoic acid to vitamin A which is about 1 molecule of retinoic acid to 300 molecules of retinol, retinal and retinoic acid).
The following groups were included:
1. Control, Western diet alone. (Control)
2. 9-cis retinoic acid (RA)
4. Dunaliella powder 8% (Dun)

patients = patients treated with gemfibrozil; cited from earlier work

Compound | plasma glucose levels (male LDL R-\-mice) | plasma insulin levels (male LDL R-\-mice) | reduction of the rate of coronary events (patients)
CC1=C(/C=C/C(C)=C\C=C\C(C)=C\C(=O)O)C(C)(C)CCC1 [9-cis retinoic acid] | did not affect | did not affect | –
Cc1ccc(C)c(OCCCC(C)(C)C(=O)O)c1 [gemfibrozil] | – | – | 22%
